The subject of assay [1] is petunia leaf disks transformed with pMON546 (CaMV35S/EPSP synthase gene). Briefly: Leaf disk callus growth on glyphosate medium, transformed disks. It counts as cell-based. To be noted: within 10 days. Here is the method:
Leaf disks with diameters of 6 mm (1/4 inch) were taken from surface-sterilized petunia leaves. They were cultured on MS104 agar medium for 2 days to promote partial cell wall formation at the wound surfaces. They were then submerged in a culture of A. tumefaciens cells containing both pMON546 and GV3111-SE which had grown overnight in Luria broth at 28° C., and shaken gently. The leaf disks were removed from the bacterial suspension, blotted dry, and incubated upside down on filter paper placed over "nurse" cultures of tobacco cells, as described by Horsch (1980). After 2 or 3 days, the disks were transferred to petri dishes containing MS media with 500 μg/ml carbenicillin and 0. 0.1, 0.25, or 0.5 mM glyphosate (sodium salt), with no nurse cultures.

The test system of assay [2] is wildtype petunia plant or transformed with control vector (pMON505). Nature of the assay: Plant response to glyphosate spraying, control plants. Format: in vivo. Conditions: 0.8 #/acre acid equivalent (0.897 kg/hectare), isopropylamine salt, spray. The method, then: Four individual representative transgenic seedlings were selected, grown and tested in the testing procedure described below, along with four individual non-transformed (wild-type) petunia seedlings.
The plants were grown in a growth medium in a growth chamber at 26° C. with 12 hours of light per day. The plants were fertilized weekly with a soluble fertilizer and watered as needed. The plants were sprayed at a uniform and reproducible delivery rate of herbicide by use of an automated track sprayer. The glyphosate solution used was measured as pounds of glyphosate acid equivalents per acre, mixed as the glyphosate isopropylamine salt, with an ionic surfactant.
Four individual wild-type (non-transformed) petunia plants were selected for use as control plants. Four individual transformed plants containing the pMON546 vector were selected by kanamycin resistance as described by Horsch, et al. (1985).
The control plants and the transformed plants were sprayed with the isopropylamine salt of glyphosate at the application level listed in Table 2 below; the experimental results obtained are also summarized in Table 2.

`O=C(O)CNCP(=O)(O)O` [glyphosate, N-phosphonomethylglycine]: the “callus growth, transformed versus control disks” value in assay [1] (0.1 mM glyphosate (sodium salt)) was “little detectable difference between the control disks and the transformed tissue”. The figures for the callus growth in assay [1] (0.25 mM glyphosate (sodium salt)) and in assay [1] (0.5 mM glyphosate (sodium salt)) were “substantial growth of transformed tissue occurred” and “a significant number of calli grew from the transformed disks”, respectively. The “Visual Appearance” value in assay [2] was “completely dead”.
